Read-outs that look alike come from different tables or passages of the source.
Experiments:
A2A receptor = biological target: T1, A2A receptor (Homo sapiens, UniProt P29274); assay: A2aR antagonism IC50, cAMP TR-FRET (Lance Ultra) in HEK-293 cells, NECA as agonist; type: cell-based; conditions: A2AR IC50 (nM) (@5 nM NECA), HEK-293 cells expressing A2A receptor; agonist NECA 5 nM (EC90); inhibition of cAMP;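 also: compounds tested from 10 µM down to 0.08 nM in buffer with Rolipram at room temperature, TR-FRET cAMP signal read 1 h after adding Eu-cAMP tracer and ULight anti-cAMP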
T1 construct: host or cells: HEK-293

[1] = Plasma protein binding, equilibrium dialysis, mouse; type: in vitro ADME; conditions: plasma (10% plasma, extrapolated to 100% plasma), CD-1 plasma, 18 hours at 37° C.
Protocol: Protein binding is measured using the equilibrium dialysis technique. Compound is added to 10% plasma giving a concentration of 10 μM and dialysed with isotonic buffer for 18 hours at 37° C. The plasma and buffer solutions are analysed using generic LC UV/MS and the first apparent binding constant for the compound derived. The binding constant is then used to determine the % free in 100% plasma
The percentage of plasma bound/unbound fraction preparation was calculated as follows
[formula] [formula] where, • Tc=Total plasma concentration was determined by the calculated concentration on the plasma side of the chamber • Fc=[…] was determined by the calculated concentration on the buffer side of the chamber • To=Total compound concentration determined before analysis.

[2] = Pharmacokinetic study in dogs; type: in vivo, male Beagle dogs; conditions: for half-life / Vd / clearance / bioavailability / Cmax / Tmax: male, Beagle, plasma; for half-life: dog; for Vd: read-out: Vss; for Cmax / Tmax: po, p.o; for Cmax: read-out: Cmax (head Co*/); for Tmax: read-out: Tmax (head Tma)
Protocol: Intravenous (i.v) and Oral formulations for pharmacokinetic (PK) studies was formulated in different vehicles and excipients to achieve the desirable solubility for intravenous and Oral routes of administration.
Appropriate amount of the test compound was weighed and dissolved in required volume of the vehicles, followed by vertexing for a few seconds to dissolve the compound. Then the solution (or) suspension was sonicated at room temperature for 5 minutes to obtain a visually clear solution and or homogenous suspension. All the formulations were prepared freshly at room temperature before dosing.
The dog PK study was carried out in male Beagle dogs of minimum 10 Kg body weight to estimate the plasma clearance, volume of distribution and terminal half-life, area under curve (AUC) and peak plasma concentration (Cmax), time of peak plasma concentration (Tmax) and absolute bioavailability (% F) following intravenous and oral routes of administration.
Briefly, Example 13 and Example 39 was administered to a group of 3 non-naïve male dogs. The first set of 3 animals received an intravenous administration and following a washout period of 7 days, received an oral administration of Example 13. Following a further 7-day washout the animals will then repeat the intravenous and oral dosing regimen with an administration of Example 39. Blood samples (1 mL) was collected from the jugular vein by venepuncture into tubes containing K2EDTA anticoagulant at the following sampling times: • IV: Predose, 0.083 (5 min), 0.25, 0.5, 1, 2, 4, 8 and 24 hrs post-dose. • PO: Predose, 0.25, 0.5, 1, 2, 4, 8 and 24 hrs post-dose.
Immediately following collection blood samples was inverted to ensure mixing with anticoagulant and placed on wet ice. As soon as practically possible samples were centrifuged (3000 rpm, 10 min, at 4° C.) and the resultant plasma decanted into appropriately labelled polypropylene tubes in 96-well plate format and stored in a freezer set to maintain a temperature of ≤−65° C., until analysis.
Plasma samples were analysed for a fit-for purpose LC-MS/MS method with a lower limit of quantification. The pharmacokinetic parameters were calculated using the non-compartmental analysis tool of validated Phoenix® WinNonlin® software (Certara, USA version 8.4) with linear up and log down method for estimating AUC.
All animals in intravenous (IV bolus) group were under fed state and animals in oral groups were fasted overnight (min 12 hr) before dose administration and food was provided 4 h post dose administration. All animals were received water ad libitum during the study period. The mean (±SD) pharmacokinetic parameters of Example 13, Example 122b & Example 39 following IV bolus and Oral dose administration in Mice/Rat and Dog is provided in Table-9.

Granzyme B = assay: Biomarker (Granzyme-B) FACS analysis in tumour samples from the efficacy study; type: in vivo, Balb/c mice; conditions: 30 mg/kg TID, Day 22, vs vehicle and anti-PD1 antibody groups
Protocol: On Day 22, the animals from the efficacy study above were euthanized by overdose of gaseous anaesthesia and tumor samples were collected and their weights were recorded before evaluating for Granzyme-B by FACs analysis.
Approximately 100 mg of tissue samples were homogenized, and the single cell suspensions were fixed and permeabilized using Miltenyi Biotec and BD kit-based reagents before staining with anti-Granzyme-B antibodies. Cells were subjected to FACS analysis while using isotype controls to ensure the specific binding of antibody and unstained cells as a negative control. The result obtained were analyzed using Flow Jo software and represented in FIG. 2.

[3] = Pharmacokinetic study in mice; type: in vivo, CD1 mice
[4] = iv, 3 mg/kg, Dog, IV bolus, Table 6, read-out: T1/2 (IV bolus) (converted)
[5] = iv, 3 mg/kg, Dog, i.v, 3 mg/kg, read-out: t1/2 (converted)
[6] = oral, 10 mg/kg, Dog, Table 6, read-out: % F
[7] = Dog, oral 10 mg/kg vs IV bolus 3 mg/kg, read-out: % F (bioavailability)
[8] = 30 mg/kg, line stands under Dog

T1 sequence (P29274 whole entry): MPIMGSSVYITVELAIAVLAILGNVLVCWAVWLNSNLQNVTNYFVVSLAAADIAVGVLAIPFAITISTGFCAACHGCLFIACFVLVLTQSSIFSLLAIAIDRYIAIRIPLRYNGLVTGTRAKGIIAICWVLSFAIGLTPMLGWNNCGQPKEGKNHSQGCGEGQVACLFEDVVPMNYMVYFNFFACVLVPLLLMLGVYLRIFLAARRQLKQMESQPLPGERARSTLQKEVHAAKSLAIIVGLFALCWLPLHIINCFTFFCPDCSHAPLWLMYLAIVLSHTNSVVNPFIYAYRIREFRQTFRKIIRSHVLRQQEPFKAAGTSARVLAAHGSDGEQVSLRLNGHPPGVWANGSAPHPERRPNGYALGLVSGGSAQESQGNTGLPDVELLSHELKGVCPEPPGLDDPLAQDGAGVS

IC50 (A2A receptor) [nM] | fraction unbound at 18 h, 10 µM [1] | Total systemic clearance relative to hepatic clearance ([2]; Dog) | Volume of distribution relative to total body water (TBW) ([2]; Dog) [× TBW] | Total CLsystemic in plasma ([2]; Dog, Table 6) [mL/min/kg] | Co (head Co*/) ([2]; Dog, i.v, 3 mg/kg) [ng/m] | half-life [2, 4] [min] | half-life [2, 5] [min] | Vd ([2]; intravenous, Dog, Table 6) [L/kg] | clearance ([2]; iv, Dog, i.v, 3 mg/kg) [mL/min/kg] | Vd ([2]; iv, Dog, i.v, 3 mg/kg) [L/kg] | bioavailability [2, 6] [%] | Cmax ([2]; Dog, 10 mg/kg) [ng/mL] | Tmax ([2]; Dog, 10 mg/kg) [min] | bioavailability [2, 7] [%] | SMILES | further results
0.25 | 0.0933 | equivalent to that of hepatic clearance | 3 | 33 | 2899 | 46.2 | 42 | 1.8 | 33 ± 3.6 | 1.75 | 25 | 839 | 30 | 25 | Cc1cccc(CCNc2nc3c(C)c(C)nn3c(N)c2C#N)n1 [Example 13, 7-amino-5-((2-(6-methylpyridin-2-yl)ethyl)amino)-2,3-dimethylpyrazolo[1,5-a]pyrimidine-6-carbonitrile] | Tumor Granzyme B expression (Granzyme B): significant increase; Exposure after subcutaneous (SC) dose relative to oral route [3]: 32 ×; Cmax ([3]; CD1, mouse, plasma, sc, 10 mg/kg, s.c, 10 mg/kg, read-out: Cmax (head Co*/)): 1350 ng/mL; Tmax ([3]; CD1, mouse, plasma, sc, 10 mg/kg, s.c, 10 mg/kg, read-out: Tmax (head Tma)): 30 min
0.23 | 0.125 | 1.7 × | 3.3 | 52 | 1352 | 27 | 24 | 2 | 52 ± 8.7 | 2 | 25 | 618 | 30 | 25 | CCc1c(C)nn2c(N)c(C#N)c(NCCc3ccn(C4(CO)CC4)n3)nc12 [Example 39, 7-amino-3-ethyl-5-((2-(1-(1-(hydroxymethyl)cyclopropyl)-1H-pyrazol-3-yl)ethyl)amino)-2-methylpyrazolo[1,5-a] pyrimidine-6-carbonitrile] | Cmax [2, 8]: 201 ng/mL; Tmax [2, 8]: 30 min
